This note sets out measurements from patent US12599672B2, “KRAS proteolysis targeting chimeras” (PAQ Therapeutics Inc., priority 2023, dated 2026).

Common to all, as to format: cell-based
In one experiment the target is T1, KRAS G12D (Homo sapiens, UniProt P01116, G12D).
T1 construct: AsPc-1-KRAS (G12D)-HiBit-KI cell (Pharmaron); host or cells: AsPc-1-KRAS (G12D)-HiBit-KI cells (HiBiT knock-in at the endogenous KRAS locus)
In words: KRAS G12D HiBit assay. Conditions: AsPc-1-KRAS (G12D)-HiBit-KI cell, compound treatment for 24 hours; for DC50: absolute DC50. The procedure, abridged:
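HiBiT luminescence, detected by adding lytic buffer, substrate and LgBiT protein, served as the KRAS G12D read-out. Compounds, serially diluted 3-fold over 10 points from 0.3 mM DMSO stock, were on cells for 24 h; percent inhibition normalized to cells given 0.1% DMSO only.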

For a further experiment, the target named is T2, KRAS G12V (Homo sapiens, UniProt P01116, G12V).
T2 construct: SW620-KRAS (G12V)-HiBit-KI cell (Pharmaron); host or cells: SW620-KRAS (G12V)-HiBit-KI cells (HiBiT knock-in at the endogenous KRAS locus)
In words: KRAS G12V HiBit assay. The settings on record: SW620-KRAS (G12V)-HiBit-KI cells, compound treatment for 24 hours, class symbols. The procedure, abridged: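 Luminescence from lytic Nano-Glo HiBiT detection with LgBiT read KRAS G12V levels after 24 h compound exposure. Dilutions were 10-point, 3-fold, from a 0.3 mM DMSO stock. Degradation activity was normalised to cells given 0.1% DMSO alone.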
(In general: HiBiT is a short tag that completes a luciferase, so light tracks the accessible tagged protein.)

The next experiment concerns the target T3, KRAS (Homo sapiens, UniProt P01116).
T3 construct: endogenous in cells; host or cells: KE39 (KRAS amplified) cells
Briefly: KRASamp MSD assay. The settings on record: KE39 (KRAS amplified) cells, treated with test compounds for 24 hr, MSD readout of KRAS degradation. The procedure, abridged:
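Degradation DC50 derived by curve fitting, with KRAS levels quantified by MSD electrochemiluminescence (capture/detection antibodies, recombinant WT KRAS standard). Lysates prepared from KE39 cells (KRAS amplified) exposed to test compounds for 24 hr.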

[1] abbreviates: numeric bounds given in place of class symbols.

T1 sequence (P01116 1-188 isoform P01116-2 G12D): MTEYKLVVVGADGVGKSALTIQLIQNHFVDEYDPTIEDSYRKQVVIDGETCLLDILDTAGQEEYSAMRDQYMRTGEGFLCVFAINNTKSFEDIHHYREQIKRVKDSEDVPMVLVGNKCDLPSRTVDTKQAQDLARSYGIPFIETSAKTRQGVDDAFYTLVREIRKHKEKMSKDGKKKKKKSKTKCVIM
T2 sequence (P01116 1-188 isoform P01116-2 G12V): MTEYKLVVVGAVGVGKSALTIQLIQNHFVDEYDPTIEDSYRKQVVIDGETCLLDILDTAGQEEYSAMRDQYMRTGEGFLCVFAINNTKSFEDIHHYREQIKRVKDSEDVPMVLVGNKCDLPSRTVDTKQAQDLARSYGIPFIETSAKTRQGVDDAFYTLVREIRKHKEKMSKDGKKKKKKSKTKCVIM
T3 sequence (P01116 1-188 isoform P01116-2): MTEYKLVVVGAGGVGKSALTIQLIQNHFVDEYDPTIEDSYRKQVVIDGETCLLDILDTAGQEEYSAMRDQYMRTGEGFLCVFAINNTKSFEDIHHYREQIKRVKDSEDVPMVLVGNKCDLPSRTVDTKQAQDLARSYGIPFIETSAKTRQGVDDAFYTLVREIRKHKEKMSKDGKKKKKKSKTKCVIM

`CCc1c(F)ccc2cc(O)cc(-c3ncc4c(N5CCC[C@@H](CO)C5)nc(OC[C@@]56CCCN5[C@H](COC(=O)N5CCC(CN7CCC(c8ccc9c(c8)n(C)c(=O)n9C8CCC(=O)NC8=O)CC7)CC5)CC6)nc4c3F)c12` (stereo partly drawn) [Compound 340, ((3S,7aS)-7a-(((7-(8-ethyl-7-fluoro-3-hydroxynaphthalen-1-yl)-8-fluoro-4-((R)-3-(hydroxymethyl)piperidin-1-yl)pyrido[4,3-d]pyrimidin-2-yl)oxy)methyl)hexahydro-1H-pyrrolizin-3-yl)methyl 4-((4-(1-(2,6-dioxopiperidin-3-yl)-3-methyl-2-oxo-2,3-dihydro-1H-benzo[d]imidazol-5-yl)piperidin-1-yl)methyl)piperidine-1-carboxylate]: the DC50 at KRAS G12D (class symbols) is less than 100 nM; on KRAS G12V, less than 10 nM; at KRAS, less than 1 nM.

With `CCc1c(F)ccc2cc(O)cc(-c3ncc4c(N5CCC[C@@](C)(O)C5)nc(OC[C@@]56CCCN5[C@H](COC(=O)N5CCC(C#Cc7ccc8c(c7)n(C)c(=O)n8C7CCC(=O)NC7=O)CC5)CC6)nc4c3F)c12` (stereo partly drawn) [Compound 404, ((3S,7aS)-7a-(((7-(8-ethyl-7-fluoro-3-hydroxynaphthalen-1-yl)-8-fluoro-4-((R)-3-hydroxy-3-methylpiperidin-1-yl)pyrido[4,3-d]pyrimidin-2-yl)oxy)methyl)hexahydro-1H-pyrrolizin-3-yl)methyl 4-((1-(2,6-dioxopiperidin-3-yl)-3-methyl-2-oxo-2,3-dihydro-1H-benzo[d]imidazol-5-yl)ethynyl)piperidine-1-carboxylate], the DC50 at KRAS G12D (setting [1]) was greater than 100 nM; at KRAS G12V it was less than 10 nM; on KRAS, 1 to 10 nM.

Regarding `C#Cc1c(F)ccc2cc(O)cc(-c3ncc4c(N5CCC[C@@](C)(O)C5)nc(OC[C@@]56CCCN5[C@H](COC(=O)N5CCC(OCC#Cc7cccc8c7n(C)c(=O)n8C7CCC(=O)NC7=O)CC5)CC6)nc4c3F)c12` (stereo partly drawn) [Compound 372, ((3S,7aS)-7a-(((7-(8-ethynyl-7-fluoro-3-hydroxynaphthalen-1-yl)-8-fluoro-4-((R)-3-hydroxy-3-methylpiperidin-1-yl)pyrido[4,3-d]pyrimidin-2-yl)oxy)methyl)hexahydro-1H-pyrrolizin-3-yl)methyl 4-((3-(1-(2,6-dioxopiperidin-3-yl)-3-methyl-2-oxo-2,3-dihydro-1H-benzo[d]imidazol-4-yl)prop-2-yn-1-yl)oxy)piperidine-1-carboxylate], the DC50 is less than 100 nM on KRAS G12D (class symbols), 10 to 100 nM at KRAS G12V and 1 to 10 nM at KRAS.

Turning to `CCc1c(F)ccc2cc(O)cc(-c3ncc4c(N5CCC[C@@](C)(O)C5)nc(OC[C@@]56CCCN5[C@H](COC(=O)N5CCC(F)(CN7CCC(c8ccc9c(c8)n(C)c(=O)n9C8CCC(=O)NC8=O)CC7)CC5)CC6)nc4c3F)c12` (stereo partly drawn) [Compound 156, ((3S,7AS)-7a-(((7-(8-ethyl-7-fluoro-3-hydroxynaphthalen-1-yl)-8-fluoro-4-((R)-3-hydroxy-3-methylpiperidin-1-yl)pyrido[4,3-d]pyrimidin-2-yl)oxy)methyl)hexahydro-1H-pyrrolizin-3-yl)methyl 4-((4-(1-(2,6-dioxopiperidin-3-yl)-3-methyl-2-oxo-2,3-dihydro-1H-benzo[d]imidazol-5-yl)piperidin-1-yl)methyl)-4-fluoropiperidine-1-carboxylate], the DC50 on KRAS G12D (class symbols) is less than 100 nM; on KRAS G12V it was less than 10 nM; on KRAS, less than 1 nM.

For `CCc1cccc2cc(O)cc(-c3cc4nc(OC[C@@]56CCCN5[C@H](COC(=O)N5CCC(CN7CCC(c8ccc9c(c8)n(C)c(=O)n9C8CCC(=O)NC8=O)CC7)CC5)CC6)nc(N5CCC[C@@](C)(O)C5)c4cn3)c12` (stereo partly drawn) [Compound 378, ((3S,7aS)-7a-(((7-(8-ethyl-3-hydroxynaphthalen-1-yl)-4-((R)-3-hydroxy-3-methylpiperidin-1-yl)pyrido[4,3-d]pyrimidin-2-yl)oxy)methyl)hexahydro-1H-pyrrolizin-3-yl)methyl 4-((4-(1-(2,6-dioxopiperidin-3-yl)-3-methyl-2-oxo-2,3-dihydro-1H-benzo[d]imidazol-5-yl)piperidin-1-yl)methyl)piperidine-1-carboxylate], the DC50 on KRAS G12D (class symbols) is less than 100 nM; on KRAS G12V, less than 10 nM; on KRAS, less than 1 nM.

With `CCc1c(F)ccc2cc(O)cc(-c3ncc4c(N5CCC[C@@](C)(O)C5)nc(OCC5(CN6CCN(CC7CCN(c8ccc9c(c8)n(C)c(=O)n9C8CCC(=O)NC8=O)CC7)CC6)CC5)nc4c3F)c12` (stereo partly shown) [Compound 34], the DC50 is less than 100 nM at KRAS G12D (class symbols), less than 10 nM on KRAS G12V and less than 1 nM at KRAS.

As for `C#Cc1c(F)ccc2cc(O)cc(-c3ncc4c(N5CCC[C@@](C)(O)C5)nc(OC[C@@]56CCCN5[C@H](COC(=O)N5CC7(CCC(CN8CCC(c9ccc%10c(c9)n(C)c(=O)n%10C9CCC(=O)NC9=O)CC8)CC7)C5)CC6)nc4c3F)c12` (stereo partly drawn) [Compound 421, ((3S,7aS)-7a-(((7-(8-ethynyl-7-fluoro-3-hydroxynaphthalen-1-yl)-8-fluoro-4-((R)-3-hydroxy-3-methylpiperidin-1-yl)pyrido[4,3-d]pyrimidin-2-yl)oxy)methyl)hexahydro-1H-pyrrolizin-3-yl)methyl 7-((4-(1-(2,6-dioxopiperidin-3-yl)-3-methyl-2-oxo-2,3-dihydro-1H-benzo[d]imidazol-5-yl)piperidin-1-yl)methyl)-2-azaspiro[3.5]nonane-2-carboxylate], the DC50 on KRAS G12D (class symbols) was less than 100 nM; at KRAS G12V, less than 10 nM; at KRAS, less than 1 nM.

Consider `CCc1c(F)ccc2cc(O)cc(-c3ncc4c(N5CC[C@@H](O)C5)nc(OC[C@@]56CCCN5[C@H](COC(=O)N5CCC7(CC5)CC(N5CCC(c8ccc9c(c8)n(C)c(=O)n9C8CCC(=O)NC8=O)CC5)C7)CC6)nc4c3F)c12` (stereo partly drawn) [Compound 350, ((3S,7aS)-7a-(((7-(8-ethyl-7-fluoro-3-hydroxynaphthalen-1-yl)-8-fluoro-4-((R)-3-hydroxypyrrolidin-1-yl)pyrido[4,3-d]pyrimidin-2-yl)oxy)methyl)hexahydro-1H-pyrrolizin-3-yl)methyl 2-(4-(1-(2,6-dioxopiperidin-3-yl)-3-methyl-2-oxo-2,3-dihydro-1H-benzo[d]imidazol-5-yl)piperidin-1-yl)-7-azaspiro[3.5]nonane-7-carboxylate], for which the DC50 on KRAS G12D (class symbols) is less than 100 nM; at KRAS G12V it was less than 10 nM; on KRAS it was 1 to 10 nM.

Take `C#Cc1c(F)ccc2cc(O)cc(-c3ncc4c(N5CCC[C@@](C)(O)C5)nc(OC[C@@]56CCCN5[C@H](COC(=O)N5CCC(CN7CCC(c8ccc9c(c8)n(C)c(=O)n9C8CCC(=O)NC8=O)CC7)CC5)CC6)nc4c3F)c12` (stereo partly drawn) [Compound 4, [(3S,8S)-8-[[7-(8-Ethynyl-7-fluoro-3-hydroxy-1-naphthyl)-8-fluoro-4-[(3R)-3-hydroxy-3-methyl-1-piperidyl]pyrido[4,3-d]pyrimidin-2-yl]oxymethyl]-1,2,3,5,6,7-hexahydropyrrolizin-3-yl]methyl4-[[4-[1-(2,6-dioxo-3-piperidyl)-3-methyl-2-oxo-benzimidazol-5-yl]-1-piperidyl]methyl]piperidine-1-carboxylate]: the DC50 at KRAS G12D (class symbols) is less than 100 nM; on KRAS G12V, less than 10 nM; on KRAS, less than 1 nM. The “Average Dmax” value at KRAS G12D (class symbols) is “A (Dmax greater than 50%)”.

With `CCc1c(F)ccc2cc(O)cc(-c3ncc4c(N5CCC[C@@](C)(O)C5)nc(OC[C@@]56CCCN5[C@H](COC(=O)N5CCC(CN7CCC(c8ccc9c(c8)n(C)c(=O)n9C8CCC(=O)NC8=O)C7)CC5)CC6)nc4c3F)c12` (stereo partly drawn) [Compound 435, ((3S,7aS)-7a-(((7-(8-ethyl-7-fluoro-3-hydroxynaphthalen-1-yl)-8-fluoro-4-((R)-3-hydroxy-3-methylpiperidin-1-yl)pyrido[4,3-d]pyrimidin-2-yl)oxy)methyl)hexahydro-1H-pyrrolizin-3-yl)methyl 4-((3-(1-(2,6-dioxopiperidin-3-yl)-3-methyl-2-oxo-2,3-dihydro-1H-benzo[d]imidazol-5-yl)pyrrolidin-1-yl)methyl)piperidine-1-carboxylate], the figures for the DC50 on KRAS G12D (class symbols), at KRAS G12V and at KRAS were less than 100 nM, 10 to 100 nM and 1 to 10 nM, respectively.

With `CCc1c(F)ccc2cc(O)cc(-c3ncc4c(N5CCC[C@@](C)(O)C5)nc(OC[C@]56CCCN5[C@H](COC(=O)NC5CCCN(c7cccc8c7n(C)c(=O)n8C7CCC(=O)NC7=O)C5)CC6)nc4c3F)c12` (stereo partly drawn) [Compound 312, ((3S,7aR)-7a-(((7-(8-ethyl-7-fluoro-3-hydroxynaphthalen-1-yl)-8-fluoro-4-((R)-3-hydroxy-3-methylpiperidin-1-yl)pyrido[4,3-d]pyrimidin-2-yl)oxy)methyl)hexahydro-1H-pyrrolizin-3-yl)methyl (1-(1-(2,6-dioxopiperidin-3-yl)-3-methyl-2-oxo-2,3-dihydro-1H-benzo[d]imidazol-4-yl)piperidin-3-yl)carbamate], the results for the DC50 on KRAS G12D (setting [1]), on KRAS G12V and at KRAS were greater than 100 nM, 10 to 100 nM and no less than 10 nM, respectively.
